Results published in US12234245B2, “Sulfonimidamide compounds as inhibitors of interleukin-1 activity” (Genentech, Inc., priority 2018, dated 2025).

Experiments:
Format in all cases: cell-based
[1] = tested on: PBMCs; experiment: CTG (CellTiter-Glo) viability assay in PBMCs; settings: Homo sapiens, PBMC, LPS and nigericin stimulated
Protocol: (§1) Human peripheral blood mononuclear cells (PBMCs), consisting of lymphocytes (T, B and NK cells), monocytes and dendritic cells, were freshly isolated from human peripheral blood from healthy donors. Cells were obtained through an IRB approved donor program by iXCells Biotechnologies where all the donors were tested for bacterial and viral infections. Cells were purified from peripheral blood using ficoll gradient centrifugation.
(§2) Fresh or cryopreserved PMBCs were seeded in V-bottom 96-well plate at 0.5-1×10^5 cells per well and incubated overnight at 37° C. with 5% CO2 in RPMI 1640 medium with GlutaMAX supplement, 4.5 g/L D-glucose, 10% Fetal Bovine Serum (FBS), […] Sodium Pyruvate, 1% Penicillin/Streptomycin, 10 mM HEPES and 0.05 mM of β-mercaptoethanol. Freshly isolated or cryopreserved KCs cells were seeded in flat-bottom 96-well plates at 0.6-1.5×10^5 cells/well and incubated overnight at 37° C. 5% CO2 in RPMI 1640 Medium with GlutaMAX supplement, FBS, 1% Penicillin/Streptomycin and 10 mM HEPES. The following day, the cells were primed with 100 ng/mL of lipopolysaccharides (LPS; Sigma Aldrich) in FBS-free RPMI 1640 for 3 h. After the priming step, the media was removed and PBMCs were pre-incubated with serial concentrations of test compounds (0.00017-10 uM) or vehicle (DMSO) for 30 min in FBS-free media prior to addition of the NLRP3 activator. Cells were then stimulated with 10 uM Nigericin (Sigma Aldrich; InvivoGen) for 1.5 h. Plates were centrifuged at 1,500 rpm for 3 minutes to pellet cells and supernatant was transferred into new plates for subsequent experiments.
Viability of compound treated cells was measured using CellTiter-Glo® assay (Promega, Madison, Wis.) that measures the ATP content of cells which is proportional to the number of live cells within a well. This is a counter-screen to establish that the reduction of IL-1β levels in LPS and nigericin stimulated and compound treated cells is not due to cytotoxicity, but rather through the inhibition of the inflammasome pathway. Compounds inhibiting NRLP3 inflammasome activation ultimately increase the viability of LPS and nigericin stimulated cells by blocking NLRP3 mediated pyroptosis that would otherwise lead to cell lysis.

[2] = target: T1, NLRP3 inflammasome (Homo sapiens, UniProt Q96P20); experiment: NLRP3 inflammasome activation assay in PBMCs, IL-1β release (ELISA / HTRF); set-up: were freshly isolated from human peripheral blood from healthy donors; StemCells Technologies; host or cells: primary human PBMCs, LPS-primed, nigericin-stimulated; settings: LPS primed
T1 sequence (Q96P20 whole entry): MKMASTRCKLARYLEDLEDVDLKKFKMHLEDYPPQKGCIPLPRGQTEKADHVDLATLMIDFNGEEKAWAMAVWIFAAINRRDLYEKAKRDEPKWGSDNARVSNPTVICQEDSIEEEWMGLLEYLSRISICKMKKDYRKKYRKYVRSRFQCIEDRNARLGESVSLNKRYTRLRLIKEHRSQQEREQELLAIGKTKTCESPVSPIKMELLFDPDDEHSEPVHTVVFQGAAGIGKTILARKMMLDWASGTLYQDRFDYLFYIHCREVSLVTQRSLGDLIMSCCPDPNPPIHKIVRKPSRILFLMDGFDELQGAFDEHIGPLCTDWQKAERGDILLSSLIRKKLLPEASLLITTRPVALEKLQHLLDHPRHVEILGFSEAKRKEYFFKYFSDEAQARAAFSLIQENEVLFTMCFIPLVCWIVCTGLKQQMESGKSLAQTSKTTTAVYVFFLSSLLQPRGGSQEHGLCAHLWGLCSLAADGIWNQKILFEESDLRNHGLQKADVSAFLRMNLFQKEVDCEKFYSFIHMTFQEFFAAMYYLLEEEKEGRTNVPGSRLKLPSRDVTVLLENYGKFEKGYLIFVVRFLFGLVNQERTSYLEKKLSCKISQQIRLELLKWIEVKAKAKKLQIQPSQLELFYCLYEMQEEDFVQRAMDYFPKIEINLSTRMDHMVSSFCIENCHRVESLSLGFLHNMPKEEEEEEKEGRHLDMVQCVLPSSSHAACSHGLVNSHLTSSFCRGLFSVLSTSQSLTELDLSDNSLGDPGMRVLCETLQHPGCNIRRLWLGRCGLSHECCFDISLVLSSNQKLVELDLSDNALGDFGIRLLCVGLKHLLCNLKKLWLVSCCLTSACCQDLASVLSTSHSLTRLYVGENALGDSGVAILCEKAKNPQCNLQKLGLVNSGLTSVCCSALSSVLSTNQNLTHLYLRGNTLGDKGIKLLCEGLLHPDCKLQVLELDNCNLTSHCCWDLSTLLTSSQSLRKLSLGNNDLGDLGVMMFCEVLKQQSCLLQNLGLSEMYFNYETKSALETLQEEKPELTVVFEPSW
Protocol: Some of the following assays were used to determine the inhibitory activity of the compounds on the NLRP3 inflammasome using a common inflammasome activation stimuli—nigericin.
as §1, §2
For ELISA assays cells were seeded into 96-well plates. Post study, supernatants were removed and the levels of mature IL-1β, IL18 and TNFα (Quantikine ELISA, R&D systems) were measured in cell conditioned media by ELISA according to manufacturer's instructions.
Human frozen PBMCs were purchased from StemCells Technologies. Cells were rapidly thawed in 37° C. water bath and resuspended in fresh assay media consisting of RPMI 1640 Medium containing 1% sodium pyruvate, 10 mM HEPES, 2.5 g/L glucose and 55 μM 2-Mercaptoethanol. Cell density was adjusted to 8.1×10^5 cells/mL. Cells were primed by adding lipopolysaccharide (Invivogen Ultrapure lipopolysaccharide from E. coli, tlrl-3pelps) at a final concentration of 100 ng/mL in cell suspension. 37 μL of cell suspension with LPS was seeded per well of a 384 well plate and incubated for 3 hours at 37° C. and 5% CO2. After priming, PBMCs were preincubated with serially diluted test compounds with starting concentration of 40 μM followed by 2-fold dilution for a 20-point curve or vehicle (DMSO) for 30 min in assay media at 37° C. and 5% CO2. Cells were then stimulated with 10 μM nigericin (Invivogen, tlrl-nig-5) for 90 min at 37° C. and 5% CO2 to activate NLRP3 dependent inflammasome pathway and IL-1β release in cell culture supernatant. Cells were centrifuged at 1200 RPM for 1 min and 40 μL of supernatant was transferred into fresh plates and stored at −80° C. until IL-1β analysis.
16 μL of supernatant was added to white 384 well HTRF plates, followed by addition of 4 μL of HTRF cocktail in each well. Plates were quickly centrifuged, sealed and incubated overnight at room temperature. Next day, HTRF signal was read on a Pherastar and ratio of 665/620 was calculated based on manufacturer's protocol to obtain concentration of IL-1β in cell culture supernatant.

[3] = target: T1, NLRP3 inflammasome; experiment: THP-1 ASC-GFP speck assay; set-up: host or cells: THP-1 ASC-GFP cells, PMA-differentiated, LPS-primed, nigericin-stimulated; settings: THP-1 ASC-GFP cells, PMA differentiated, LPS primed, 10 μM nigericin; read-out: THP1 ASC Speck IC50
Method in brief: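 PMA-differentiated (500 ng/ml, overnight) THP-1 ASC-GFP cells primed with 1 μg/mL LPS for 3 h, preincubated 30 min with compound (top 40 μM, 2-fold, 20 points), then stimulated with 10 μM nigericin for 90 min at 37 °C. After fixation and Hoechst staining, imaging gave the percentage of cells bearing a GFP ASC speck.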

[4] = 10 uM nigericin, read-out: PBMC IL-1 β IC50
[5] = 10 μM nigericin, read-out: PBMC IL-1β IC50

IC50 [2, 4] | IC50 [2, 5] | IC50 [3] | Structure (SMILES) | IC50 [1]
< 100 nM | – | – | NS(=O)(=NC(=O)Nc1c2c(c(F)c3c1CCC3)CCC2)c1cnn2c1OCCC2 (stereo not shown) | < 100 nM
100 to 1000 nM | – | – | Cn1cc(S(N)(=O)=NC(=O)Nc2c3c(cc4c2CCC4)CCC3)cn1 (stereo not shown) | 100 to 1000 nM
< 100 nM | – | – | CC1(C)COc2c(S(N)(=O)=NC(=O)Nc3c4c(cc5c3CCC5)CCC4)cnn2C1 (stereo not shown) | < 100 nM
> 10000 nM | – | – | CN=S(=O)(NC(=O)Nc1c2c(cc3c1CCC3)CCC2)c1cnn2c1OCCC2 (stereo not shown) | > 10000 nM
100 to 1000 nM | – | – | N=S(=O)(NC(=O)Nc1c2c(cc3c1CCC3)CCC2)c1cnn(CC2CC2)c1 (stereo not shown) | 100 to 1000 nM
– | 24 nM | – | CO[C@@H]1COc2c(S(N)(=O)=NC(=O)Nc3c4c(cc5c3CCC5)CCC4)cnn2C1 (mixture of isomers) [Example 2, (6S)—N′-((1,2,3,5,6,7-hexahydro-s-indacen-4-yl)carbamoyl)-6-methoxy-6,7-dihydro-5H-pyrazolo[5,1-b][1,3]oxazine-3-sulfonimidamide] | 100 nM
– | 410 nM | – | CC(C)c1cc(F)cc(C(C)C)c1NC(=O)N=S(N)(=O)c1cnn2c1OCCC2 (racemic) [Example 3, N′-((4-fluoro-2,6-diisopropylphenyl)carbamoyl)-6,7-dihydro-5H-pyrazolo[5,1-b][1,3]oxazine-3-sulfonimidamide] | 176 nM
– | 50 nM | – | NS(=O)(=NC(=O)Nc1c2c(c(F)c3c1CCC3)CCC2)c1cnn2c1OCCC2 (racemic) [Example 4, N′-((8-fluoro-1,2,3,5,6,7-hexahydro-s-indacen-4-yl)carbamoyl)-6,7-dihydro-5H-pyrazolo[5,1-b][1,3]oxazine-3-sulfonimidamide] | 35 nM
– | 1020 nM | – | Cn1cc(S(N)(=O)=NC(=O)Nc2c3c(cc4c2CCC4)CCC3)cn1 (racemic) [Example 5, N′-((1,2,3,5,6,7-hexahydro-s-indacen-4-yl)carbamoyl)-1-methyl-1H-pyrazole-4-sulfonimidamide] | 648 nM
– | 14 nM | – | CC1(C)COc2c(S(N)(=O)=NC(=O)Nc3c4c(cc5c3CCC5)CCC4)cnn2C1 (racemic) [Example 6, N′-((1,2,3,5,6,7-hexahydro-s-indacen-4-yl)carbamoyl)-6,6-dimethyl-6,7-dihydro-5H-pyrazolo[5,1-b][1,3]oxazine-3-sulfonimidamide] | 3 nM
– | 5 nM | 18 nM | COC1CN(C2COc3c(S(N)(=O)=NC(=O)Nc4c5c(c(F)c6c4CCC6)CCC5)cnn3C2)C1 (single isomer, unassigned) [Example 42] | –
– | 430 nM | 1900 nM | COC1CN(C2COc3c(S(N)(=O)=NC(=O)Nc4c5c(c(F)c6c4CCC6)CCC5)cnn3C2)C1 (single isomer, unassigned) [Example 43] | –
– | 86 nM | 450 nM | CN(C)[C@@H]1COc2c([S@](N)(=O)=NC(=O)Nc3c4c(c(F)c5c3CCC5)CCC4)cnn2C1 (single isomer, unassigned) [Example 44] | –
– | 0.7 nM | 11 nM | CN(C)[C@@H]1COc2c([S@@](N)(=O)=NC(=O)Nc3c4c(c(F)c5c3CCC5)CCC4)cnn2C1 (single isomer, unassigned) [Example 45] | –
– | 7 nM | 81 nM | NS(=O)(=NC(=O)Nc1c2c(c(F)c3c1CCC3)CCC2)c1cnn2c1OCC(NCCF)C2 (single isomer, unassigned) [Example 46] | –
– | 330 nM | 1700 nM | NS(=O)(=NC(=O)Nc1c2c(c(F)c3c1CCC3)CCC2)c1cnn2c1OC[C@@H](NCCF)C2 (single isomer, unassigned) [Example 47] | –

IC50 [2, 4] | IC50 [2, 5] | IC50 [3] | Structure (SMILES) | IC50 [1]
– | 490 nM | 400 nM | COc1cc(C(C)C)c(NC(=O)N=S(N)(=O)c2cnn3c2OC[C@@H](N2CC(OC)C2)C3)c(C(C)C)n1 (single isomer, unassigned) [Example 49] | –
– | 200 nM | 430 nM | CNC1COc2c(S(N)(=O)=NC(=O)Nc3c(C(C)C)cc(OC)nc3C(C)C)cnn2C1 (single isomer, unassigned) [Example 50] | –
– | > 10000 nM | 17000 nM | CNC1COc2c(S(N)(=O)=NC(=O)Nc3c(C(C)C)cc(OC)nc3C(C)C)cnn2C1 (single isomer, unassigned) [Example 51] | –
– | 15100 nM | > 20000 nM | COc1cc(C(C)C)c(NC(=O)N=S(N)(=O)c2cnn3c2OCC(OC)C3)c(C(C)C)n1 (single isomer, unassigned) [Example 52] | –
– | 470 nM | 1200 nM | COc1cc(C(C)C)c(NC(=O)N=S(N)(=O)c2cnn3c2OCC(OC)C3)c(C(C)C)n1 (single isomer, unassigned) [Example 53] | –
– | 330 nM | 360 nM | COCCNC1COc2c(S(N)(=O)=NC(=O)Nc3c4c(cc5c3CCC5)CCC4)cnn2C1 (single isomer, unassigned) [Example 54] | –
– | > 10000 nM | 7200 nM | COCCNC1COc2c(S(N)(=O)=NC(=O)Nc3c4c(cc5c3CCC5)CCC4)cnn2C1 (single isomer, unassigned) [Example 55] | –
– | > 10000 nM | > 20000 nM | CNCCOC1COc2c(S(N)(=O)=NC(=O)Nc3c4c(cc5c3CCC5)CCC4)cnn2C1 (single isomer, unassigned) [Example 56] | –
– | > 10000 nM | 5500 nM | NC1COc2c(S(N)(=O)=NC(=O)Nc3c4c(cc5c3CCC5)CCC4)cnn2C1 (single isomer, unassigned) [Example 58] | –
– | > 20000 nM | > 20000 nM | CC1CCOc2c(S(N)(=O)=NC(=O)Nc3c4c(cc5c3CCC5)CCC4)cnn2C1 (single isomer, unassigned) [Example 64] | –
– | > 20000 nM | > 20000 nM | CC1CCOc2c(S(N)(=O)=NC(=O)Nc3c4c(cc5c3CCC5)CCC4)cnn2C1 (single isomer, unassigned) [Example 66] | –
– | 220 nM | 1400 nM | CC1CCOc2c(S(N)(=O)=NC(=O)Nc3c4c(cc5c3CCC5)CCC4)cnn2C1 (single isomer, unassigned) [Example 67] | –
– | 380 nM | 330 nM | N#CNS(=O)(=NC(=O)Nc1c2c(cc3c1CCC3)CCC2)c1cnn2c1OCCC2 (single isomer, unassigned) [Example 68] | –
– | 95 nM | 260 nM | N[C@@H]1COc2c([S@@](N)(=O)=NC(=O)Nc3c4c(cc5c3CCC5)CCC4)cnn2C1 [Example 59, (S,6S)-6-amino-N′-((1,2,3,5,6,7-hexahydro-s-indacen-4-yl)carbamoyl)-6,7-dihydro-5H-pyrazolo[5,1-b][1,3]oxazine-3-sulfonimidamide] | –
100 to 1000 nM | – | – | CN[C@@H]1COc2c(S(=N)(=O)NC(=O)Nc3c4c(cc5c3CCC5)CCC4)cnn2C1 (stereo partly shown) [drawing 673] | –
